Results published in patent US20170226139A1, “CRYSTALLINE SALTS OF (Z)-O-OCTADEC-9-EN-1-YL O,O-DIHYDROGEN PHOSPHOROTHIOATE” (priority 2013, published 2017).
Where two headings read alike, the source gives them in different places.

Assays:
Human LPA3 = biological target: T1, Human LPA3 (Homo sapiens, UniProt Q9UBY5); experiment: Calcium-mobilization assay (FURA-2), human LPA3 transfected cells; assay type: cell-based; conditions: for EC50: EC50 [nM], mean
T1 construct: expressed in transfected cells; host or cells: mouse embryonic fibroblasts (MEF) or rat hepatoma RH7777
T1 sequence (Q9UBY5 1-353): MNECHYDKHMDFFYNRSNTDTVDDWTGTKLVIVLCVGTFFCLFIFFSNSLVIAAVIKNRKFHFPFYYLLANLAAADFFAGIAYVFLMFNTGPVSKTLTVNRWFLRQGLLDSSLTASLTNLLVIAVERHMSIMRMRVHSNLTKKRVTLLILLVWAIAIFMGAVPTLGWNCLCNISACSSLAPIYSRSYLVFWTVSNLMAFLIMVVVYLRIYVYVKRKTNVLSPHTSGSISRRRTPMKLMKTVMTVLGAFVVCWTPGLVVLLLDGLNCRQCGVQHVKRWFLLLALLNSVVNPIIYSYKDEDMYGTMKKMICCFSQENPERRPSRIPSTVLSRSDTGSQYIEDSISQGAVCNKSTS
Experimental: (§1) We investigated structure-activity relationships across species, LPAR subtypes and between Rx100 and two known process impurities encountered in manufacture: Rx103 (‘E’ isomer) and Rx200 (oleyl phosphate and impurity, which can be an Rx100 degradant along with oleyl alcohol). Rx100, Rx103, Rx200 and native LPA were investigated at different human LPAR subtypes. In addition, the activity of these compounds was evaluated at LPA2 receptors from the rhesus, rat and mouse species. Human LPA1/2/3 subtypes were transfected into mouse embryonic fibroblasts (MEF) or rat hepatoma cells (RH7777)—both of which are normally non-responsive or null to LPA. Human LPA4 was transfected into Chinese hamster ovary (CHO) cells and LPA5 into the B103 neuroblastoma cell line. […] The B103 rat neuroblastoma cell line is endogenously nonresponsive to LPA but expresses heterologous LPA5 receptors well. […] LPAR activation elicits a G-protein-mediated transient rise in intracellular calcium level that is proportional to the concentration of LPA applied. The intracellular calcium level was quantified by the calcium-selective fluorescent indicator FURA-2 (e.g., increased intracellular calcium surge=increased fluorescence).

Control CHO = experiment: Calcium-mobilization assay, untransfected Control CHO cells; assay type: cell-based, Chinese hamster; conditions: Cricetulus griseus, CHO
Experimental: as §1

[1] = system: male Rhesus macaque Animal Model of GI-ARS; experiment: Survival after partial body irradiation, male Rhesus macaque Animal Model of GI-ARS; assay type: in vivo
Experimental: Using a partial body irradiation (tibial sparing) animal model in the female C57BL/6 mice, we tested the survival advantages conferred by GMP Rx100.L-Lysine salt. As a result, when administered at 0.3 to 3 mg/kg/12 h×6 doses starting at +24 hours after exposure to 15.5 to 15.7 Gy from a ^137Cesium irradiator which otherwise reliably produces an LD70-90/10 (in 10 days, 70-90% mice die after irradiation), the mortality was reduced by 20% to 50%. When administered at 0.1 mg/kg/day×6 doses in a partial body irradiation Animal Model in 19 male Rhesus macaque, a 37% increase in survival at a normally LD70/34 dose of X-ray radiation was observed. By allometric scaling using body surface area, these lowest effective doses translate to 0.02 mg/kg/day and to 0.03 mg/kg/day in humans, respectively.
These Animal Model studies were all conducted using partial body irradiation (PBI) with tibial bone marrow sparing except the earliest study which was performed with Total Abdominal Irradiation (TAI). The male Rhesus macaque model was developed by MacVittie. The female inbred murine PBI GI-ARS Animal Model was developed by the inventors. […] Differences in radiation sensitivity by gender in rodent species are well appreciated. We are not aware of PBI GI-ARS models other than these that meet criteria required to conduct a prospective, blinded, controlled, randomized study of efficacy.

[2] = biological target: T2, cloned hERG Potassium Channels expressed in human embryonic kidney cells (Homo sapiens, UniProt Q12809); experiment: hERG assay; assay type: cell-based
T2 construct: expressed in transfected cells; host or cells: human embryonic kidney cells

Human LPA2 = Human LPA2 (Homo sapiens, UniProt Q9HBW0); experiment: Calcium-mobilization assay (FURA-2), human LPA2 transfected cells; assay type: cell-based; set-up: expressed in transfected cells; host or cells: mouse embryonic fibroblasts (MEF) or rat hepatoma RH7777
Experimental: as §1

[3] = Gravimetric moisture sorption analysis, with XRPD afterwards; assay type: physicochemical
Experimental: Moisture sorption analysis of the Rx100.L-Lysine salt was performed by equilibrating the sample at 25° C. and 50% RH to simulate ambient lab conditions. Humidity then decreased to 0% RH, increased from 0 to 95% RH, reduced from 95 to 0% RH, increased from 0 to 95% RH and then decreased from 95 to 50% RH.

[4] = Solubility by incremental addition method in water or simulated formulation solvent
male Sprague Dawley rats = experiment: Central nervous system safety pharmacology, modified Irwin battery; assay type: in vivo; conditions: SC 1.81, 6.33 and 18.1 mg/kg; through 24 hours post-dose
Experimental: Four groups of male Sprague Dawley rats (n=8/group) were administered Rx100.lysine via subcutaneous injection at doses of 0 (10 mM histidine in sterile water for Injection, USP), 1.81, 6.33 and 18.1 mg/kg as the free acid. Animals were assessed pre-dose and through 24 hours post-dose for a variety of behavioral, neurological and autonomic responses using the modified Irwin battery of assessments. Dose formulation analyses were conducted and samples ranged from 99 to 104% of target. The only effect observed was a small (0.8 to 1.5 degrees C.) decrease in body temperature noted at 2-4 hours postdose.

Sprague-Dawley rats = experiment: Single-dose (and 7-day) subcutaneous toxicity in rats; assay type: in vivo
Experimental: In the second phase of the study, animals (n=3/sex/group) received 25 mg/kg/day for seven consecutive days with injections being rotated between two sites. Parameters evaluated included clinical signs, body weight, and gross pathology.

[5] = UC Davis 2011, Rhesus (♂), 0.1 mg/kg (q24 × 6), start +4, 11.5 Gy, non-GLP
[6] = UC Davis 2011, Rhesus (♂), 0.1 mg/kg (q24 × 6), start +4, 11.5 Gy, non-GLP, vs vehicle

Human LPA2, sequence (Q9HBW0 whole entry): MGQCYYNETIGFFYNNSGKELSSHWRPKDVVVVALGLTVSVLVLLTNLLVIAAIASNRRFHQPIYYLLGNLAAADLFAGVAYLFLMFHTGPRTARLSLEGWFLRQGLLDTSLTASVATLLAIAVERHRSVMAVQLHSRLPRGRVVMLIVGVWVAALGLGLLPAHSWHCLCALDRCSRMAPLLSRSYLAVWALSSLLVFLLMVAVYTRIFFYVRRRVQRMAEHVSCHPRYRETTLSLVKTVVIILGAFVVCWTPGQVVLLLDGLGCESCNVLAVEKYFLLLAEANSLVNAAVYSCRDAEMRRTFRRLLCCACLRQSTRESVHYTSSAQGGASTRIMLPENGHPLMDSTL
T2 sequence (Q12809 whole entry): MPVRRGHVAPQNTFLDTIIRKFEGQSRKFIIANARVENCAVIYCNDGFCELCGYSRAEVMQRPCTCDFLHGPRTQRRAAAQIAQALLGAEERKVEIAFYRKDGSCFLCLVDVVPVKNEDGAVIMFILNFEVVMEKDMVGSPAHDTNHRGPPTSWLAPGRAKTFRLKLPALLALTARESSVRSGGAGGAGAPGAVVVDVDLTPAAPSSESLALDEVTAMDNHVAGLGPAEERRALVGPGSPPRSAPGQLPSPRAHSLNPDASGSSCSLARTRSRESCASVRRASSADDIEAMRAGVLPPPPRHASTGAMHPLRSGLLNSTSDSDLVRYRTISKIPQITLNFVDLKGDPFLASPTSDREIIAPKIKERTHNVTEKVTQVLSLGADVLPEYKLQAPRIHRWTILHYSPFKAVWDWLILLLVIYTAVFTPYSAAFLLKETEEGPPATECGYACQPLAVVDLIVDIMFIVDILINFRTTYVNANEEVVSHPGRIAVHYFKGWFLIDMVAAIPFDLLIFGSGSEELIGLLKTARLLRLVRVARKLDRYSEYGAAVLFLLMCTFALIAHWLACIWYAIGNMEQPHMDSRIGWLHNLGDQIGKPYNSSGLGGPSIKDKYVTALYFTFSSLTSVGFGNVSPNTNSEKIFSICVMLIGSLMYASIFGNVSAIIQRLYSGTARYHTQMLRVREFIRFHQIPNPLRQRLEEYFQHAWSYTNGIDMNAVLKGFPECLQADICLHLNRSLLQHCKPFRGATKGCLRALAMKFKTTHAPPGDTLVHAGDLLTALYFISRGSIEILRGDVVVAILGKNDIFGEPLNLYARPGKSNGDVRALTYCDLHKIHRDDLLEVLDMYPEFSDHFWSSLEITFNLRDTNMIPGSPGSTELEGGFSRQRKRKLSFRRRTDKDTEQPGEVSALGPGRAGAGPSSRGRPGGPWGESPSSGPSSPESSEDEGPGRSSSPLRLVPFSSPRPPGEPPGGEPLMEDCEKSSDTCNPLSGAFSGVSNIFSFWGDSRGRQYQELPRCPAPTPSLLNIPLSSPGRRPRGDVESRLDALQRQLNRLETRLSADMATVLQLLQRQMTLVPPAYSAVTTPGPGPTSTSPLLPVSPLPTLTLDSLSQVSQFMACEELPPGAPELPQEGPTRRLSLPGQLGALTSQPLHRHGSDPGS

**Q.** For `CCCCCCCC/C=C\CCCCCCCCOP(O)(O)=S` [Rx100, (Z)—O-octadec-9-en-1-yl O,O-dihydrogen phosphorothioate], which EC50 (Human LPA3; LPA3 DKO MEF, human) is on record?
**A.** 205 nM

**Q.** And the EC50 (Human LPA3; LPA3 RH7777, human)?
**A.** 113 nM

**Q.** And the Emax (Human LPA3; RH7777, read-out: Emax (% of LPA))?
**A.** 71%

**Q.** And the Emax (Human LPA3; read-out: Emax (% of LPA))?
**A.** 82%

**Q.** What about the EC50 (Control CHO) of the same compound?
**A.** > 5000 nM

**Q.** What about the Emax (Control CHO; read-out: Emax (% of LPA)) of the same compound?
**A.** 20%

**Q.** And the “Survival Day 10, Rx100 arm (survivors/animals)” value [1, 5]?
**A.** 2/9

**Q.** What about the “Survival Day ≧30, Rx100 arm (survivors/animals)” value [1, 5] of the same compound?
**A.** 6/9

**Q.** What about the “Survival Advantage Day 10” value [1, 6] of the same compound?
**A.** 8%

**Q.** And the “Survival Advantage Day ≧30” value [1, 6]?
**A.** 37%

**Q.** What about the IC50 [2] of the same compound?
**A.** ~600000 nM

**Q.** And the “hERG IC50 relative to anticipated therapeutic concentrations” value [2]?
**A.** 100 fold

**Q.** And the EC50 (Human LPA2)?
**A.** 124 nM

**Q.** What about the Emax (Human LPA2; read-out: Emax (% of LPA)) of the same compound?
**A.** 100%

**Q.** With `CCCCCCCC/C=C\CCCCCCCCOP(O)(O)=S` [Rx100.L-Lysine, (Z)—O-octadec-9-en-1-yl O,O-dihydrogen phosphorothioate] as the compound, how does the Hygroscopicity [3] read?
**A.** hygroscopic

**Q.** And the “Residual water content after desorption” value [3]?
**A.** < 3%

**Q.** And the “Water adsorbed in moisture sorption analysis” value ([3]; at 95% RH, 25° C.)?
**A.** 20.6%

**Q.** What about the “Form by XRPD after moisture sorption analysis” value ([3]; compared with Pattern A) of the same compound?
**A.** no change in form

**Q.** What about the increase in survival ([1]; 0.1 mg/kg/day×6 doses, 19 male Rhesus macaque, normally LD70/34 dose of X-ray radiation) of the same compound?
**A.** 37%

**Q.** And the “Solubility in water” value [4]?
**A.** soluble in water

**Q.** What about the “Solubility in the simulated formulation solvent” value ([4]; 3% polyethylene glycol 200, 1% ethanol, 10 mM monosodium phosphate, balance water) of the same compound?
**A.** soluble

**Q.** What about the “Solubility in water” value ([4]; listed as L-Lysine salt) of the same compound?
**A.** soluble

**Q.** What about the “other parameters of the modified Irwin battery” value (male Sprague Dawley rats) of the same compound?
**A.** No other effects

**Q.** What about the necropsy findings (Sprague-Dawley rats; Phase I, rats given >50 mg/kg) of the same compound?
**A.** scabs were observed on the skin overlying the injection site

**Q.** What about the body weight (Sprague-Dawley rats; Phase I, single SC dose >50 mg/kg, first 3 days post-dose) of the same compound?
**A.** transient loss of body weight

**Q.** And the skin findings (Sprague-Dawley rats; Phase I, single SC doses of >10 mg/kg, beginning several days post-dose)?
**A.** produced scabs

**Q.** What about the body weight (Sprague-Dawley rats; Phase II, 25 mg/kg/day for seven consecutive days) of the same compound?
**A.** transient body weight loss was followed by rebound

**Q.** What about the necropsy findings (Sprague-Dawley rats; Phase II, 25 mg/kg/day for seven days) of the same compound?
**A.** small organ size was noted for the epididymis, prostate, seminal vesicle, and testis of all three males

**Q.** What about the dosing site findings (Sprague-Dawley rats; Phase II, 25 mg/kg/day for seven days, first two dosing sites) of the same compound?
**A.** scabs developed with delayed onset
